Results published in PubChem BioAssay (NCI).
“And” between values parts separate entries of the source, which are not always exact repeats. Equal values may be shown once.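 Cells were grown in 96-well plates and exposed to each compound for 48 hours at five concentrations; endpoints were interpolated linearly between bracketing concentrations, or set to the highest concentration if not reached. At the GI50, growth is halved. TGI: concentration producing complete growth inhibition.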

Legend:
Test in all cases: growth of human tumour cells (NCI), 48 h
[1] = test system: MDA-MB-231 breast
[2] = test system: K-562 leukemia
[3] = test system: OVCAR-5 ovarian
[4] = test system: UACC-62 melanoma
[5] = test system: ACHN renal
[6] = test system: LOX IMVI melanoma
[7] = test system: M14 melanoma
[8] = test system: SK-OV-3 ovarian
[9] = test system: SR leukemia
[10] = test system: HS 578T breast

| Structure (SMILES) | TGI [1] [µM] | GI50 [2] [µM] | TGI [2] | GI50 [3] [µM] | TGI [3] | GI50 [4] [µM] | TGI [4] | TGI [5] [µM] | GI50 [6] [µM] | TGI [6] | TGI [7] [µM] | GI50 [8] | TGI [8] | TGI [9] [µM] | GI50 [5] [µM] | GI50 [7] [µM] | GI50 [10] [µM] | TGI [10] [µM] | GI50 [1] [µM] | GI50 [9] [µM] |
| --- | --- | --- | --- | --- | --- | --- | --- | --- | --- | --- | --- | --- | --- | --- | --- | --- | --- | --- | --- | --- |
| COc1ccc(/C=C\c2cc(OC)c(OC)c(OC)c2)c(O)c1O | 18.5 | 0.333 | 13.2 µM and 37.1 µM | 43.7 | 51.8 µM and 96.4 µM | 0.238 | 17 µM and 6.88 µM | 57.7 | 0.0512 | 16.9 µM and 8.07 µM | 9.95 | 0.586 µM and 1.68 µM | 15.1 µM and 48.3 µM |  |  |  |  |  |  |  |
| C#CCN(N=O)C(=O)NCCCC(NC(C)=O)C(=O)NCc1ccccc1 (centres undefined) |  |  | > 100 µM |  | > 100 µM |  | > 100 µM | > 100 |  | > 100 µM | > 100 |  | > 100 µM | 51 |  |  |  |  |  |  |
| COC(=O)C1=C(O)[C@H](C(=O)OC)[C@]2(O)[C@@H](C(=O)OC)[C@H]1C[C@@H](c1ccc(OC(=O)/C=C/c3ccco3)cc1)[C@@H]2C(=O)OC |  | 19.7 | > 100 µM | 19.1 | 43.3 µM | 4.09 | 18.9 µM | 28.7 | 1.59 | 3.17 µM | 23.2 |  |  |  | 14.4 | 10.7 | > 100 | > 100 |  |  |
| NNC(=S)Nc1cccc(Cl)c1 | > 100 |  | > 100 µM |  | > 100 µM |  | > 100 µM | > 100 |  | > 100 µM | > 100 |  | > 100 µM |  |  |  |  | > 100 |  |  |
| O=C(O)CCSC(=S)Nc1cccc(F)c1 |  |  | > 100 µM |  | > 100 µM |  | 29.5 µM | 83.3 |  | 42.6 µM | > 100 |  | > 100 µM | > 100 |  |  |  |  |  |  |
| O=C1[C@H](Cl)[C@H]2c3cc4ccccc4nc3Oc3ccccc3N12 |  |  |  |  | > 100 µM |  | 42.5 µM | > 100 |  | > 100 µM | > 100 |  | > 100 µM | > 100 |  |  |  |  |  |  |
| Cc1ccc(NC(=O)CC/C(CC(=O)C(C)(C)C)=N\Nc2ccc([N+](=O)[O-])cc2[N+](=O)[O-])cc1C |  |  | > 100 µM |  | > 100 µM |  | > 100 µM | > 100 |  | 97.2 µM | 20.4 |  | > 100 µM | > 100 |  |  |  |  |  |  |
| COc1cc2c(cc1OC)c1c(OC)c(OC)cc3c1c1c2sc(=S)n1CC3 |  |  | > 100 µM |  | > 100 µM |  | 59.1 µM | > 100 |  | > 100 µM | 35.1 |  | > 100 µM |  |  |  |  |  |  |  |
| CC(=O)O/N=C(Cl)/C(Cl)=N/OC(C)=O |  |  | > 100 µM |  | > 100 µM |  | > 100 µM | > 100 |  | > 100 µM | > 100 |  | > 100 µM | > 100 |  |  |  |  |  |  |
| O=C(O)CCSC(=O)Nc1ccccc1Cl |  |  | > 100 µM |  | > 100 µM |  | > 100 µM | > 100 |  | > 100 µM | > 100 |  | > 100 µM | > 100 |  |  |  |  |  |  |
| CCOC(=O)NC(=O)c1cn(CCN2CCNCC2)c(=O)[nH]c1=O |  |  | > 100 µM |  | > 100 µM |  | > 100 µM | > 100 |  | > 100 µM | > 100 |  | > 100 µM | > 100 |  |  |  |  |  |  |
| Nc1ccc2c(c1)Oc1c(F)c(F)cc3c(=O)c(C(=O)O)cn-2c13 |  |  | > 100 µM |  | > 100 µM |  | > 100 µM |  |  |  | > 100 |  | > 100 µM | > 100 |  |  |  |  |  |  |
| COc1ccc(CNc2cnc3cc(N)cc(N)c3n2)cc1 | 29.6 | 10.7 | 29.3 µM | 18.1 | 43.6 µM | 18.1 | 32.4 µM | 32.2 | 17.4 | 32 µM | 43.9 | 82.1 µM | > 100 µM |  | 17.2 | 20.5 | 24.2 | 69.3 | 14.2 |  |
| CC[C@]12C=CCN3CC[C@@]4(c5ccc(OC)cc5N(C)[C@H]4[C@@](O)(C(=O)OC)[C@@H]1OC(=O)CCC(=O)N[C@H](Cc1c[nH]c4ccccc14)C(=O)OC)[C@@H]32 | 9.54 | 3.56 | > 100 µM | 14.1 | 45 µM | 2.42 | 7.19 µM | 52.7 |  |  | > 100 | 15.5 µM | 33.7 µM | > 100 | 13.4 | 4.06 | 5.52 | 28.7 | 2.83 | 3.55 |
| Cc1ccc(/C=C(\C#N)c2ccccc2)cc1 |  |  | > 100 µM |  | > 100 µM |  | > 100 µM | > 100 |  | > 100 µM | > 100 |  | > 100 µM | > 100 |  |  |  |  |  |  |
| COc1ccc(C[C@H](N)C(=O)N2C[C@@H](CO)C[C@@H](n3cnc4c(N(C)C)ncnc43)C2)cc1 |  |  | > 100 µM |  | > 100 µM |  | > 100 µM |  |  | > 100 µM | > 100 |  | > 100 µM | > 100 |  |  |  |  |  |  |
| O=C(NN1C(=O)CSC12CCCC2)C(O)c1ccccc1 (centres undefined) | > 100 | > 100 | > 100 µM | > 100 | > 100 µM | > 100 | > 100 µM | > 100 | > 100 | > 100 µM | > 100 | > 100 µM | > 100 µM |  | > 100 | > 100 | > 100 | > 100 | > 100 |  |
| CC(=N)N(C)O |  |  | > 100 µM |  | > 100 µM |  | > 100 µM | > 100 |  | 31.3 µM | > 100 |  | > 100 µM | 68.4 |  |  |  |  |  |  |
| N#Cc1cc(NC(=O)c2ccccc2)c(=O)n2c1[nH]c1ccccc12 |  |  | > 100 µM |  |  |  | > 100 µM | > 100 |  |  | 76.9 |  | 90.4 µM |  |  |  |  |  |  |  |
| CC1=C2[C@H](c3ccccc3)C3C=CC2(c2ccccc23)N(C(=O)C(c2ccccc2)c2ccccc2)C1=O (some centres undefined) |  |  | > 100 µM |  | > 100 µM |  | > 100 µM | > 100 |  | > 100 µM | > 100 |  | > 100 µM | > 100 |  |  |  |  |  |  |
| CN(C)CCC1(C2=CCCC2)CC/C(=C\c2ccccc2Cl)C1=O (centres undefined) |  |  | 14.5 µM |  | 29.1 µM |  | 29.8 µM | 31.1 |  |  | 26.8 |  |  |  |  |  |  |  |  |  |
